The values below come from patent US10479795B2 (Incyte Corporation, priority 2016, dated 2019).

Structures can show the parent of a compound that is named as a salt. Where two headings read alike, the source gives them in different places. Where only a bound is given, the exact number is not on record here.

In test [1] the test system is Phosphorylated Ribosomal Protein S6 (RPS6). The experiment in a line: THP-1 RPS6 ELISA Assay. The note with it: THP-1 cells, read-out: PI3Kγ_THP1_RPS6_ELISA IC50. The class given is cell-based, Human. The essentials:
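IC50 values come from a curve of percent inhibition against log compound concentration, using phospho-RPS6 ELISA (450 nm) on THP-1 lysates. Cells were serum-starved overnight, exposed to compound for 2 h at 37 °C, then challenged 15 min with 10 nM MCP-1.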
(In an ELISA, binding on a coated surface is turned into a signal by an enzyme label.)

For test [2], the target named is PI3Kγ (p110γ) Recombinant Human Protein (Homo sapiens (Human), UniProt P48736). The experiment in a line: PI3K-γ Scintillation Proximity Assay. Format: biochemical. The settings on record: read-out: PI3Kγ IC50. The essentials: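 Radiometric SPA readout: […] bound to WGA beads after overnight shaking, IC50 derived from % activity of DMSO control. Reaction used human p110γ, 2 μM ATP, 20 μM PIP2, pH 6.7 MOPS buffer with MgCl2, DTT, CHAPS, 2% DMSO, room temperature.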
PI3Kγ (p110γ) Recombinant Human Protein, sequence (P48736 whole entry): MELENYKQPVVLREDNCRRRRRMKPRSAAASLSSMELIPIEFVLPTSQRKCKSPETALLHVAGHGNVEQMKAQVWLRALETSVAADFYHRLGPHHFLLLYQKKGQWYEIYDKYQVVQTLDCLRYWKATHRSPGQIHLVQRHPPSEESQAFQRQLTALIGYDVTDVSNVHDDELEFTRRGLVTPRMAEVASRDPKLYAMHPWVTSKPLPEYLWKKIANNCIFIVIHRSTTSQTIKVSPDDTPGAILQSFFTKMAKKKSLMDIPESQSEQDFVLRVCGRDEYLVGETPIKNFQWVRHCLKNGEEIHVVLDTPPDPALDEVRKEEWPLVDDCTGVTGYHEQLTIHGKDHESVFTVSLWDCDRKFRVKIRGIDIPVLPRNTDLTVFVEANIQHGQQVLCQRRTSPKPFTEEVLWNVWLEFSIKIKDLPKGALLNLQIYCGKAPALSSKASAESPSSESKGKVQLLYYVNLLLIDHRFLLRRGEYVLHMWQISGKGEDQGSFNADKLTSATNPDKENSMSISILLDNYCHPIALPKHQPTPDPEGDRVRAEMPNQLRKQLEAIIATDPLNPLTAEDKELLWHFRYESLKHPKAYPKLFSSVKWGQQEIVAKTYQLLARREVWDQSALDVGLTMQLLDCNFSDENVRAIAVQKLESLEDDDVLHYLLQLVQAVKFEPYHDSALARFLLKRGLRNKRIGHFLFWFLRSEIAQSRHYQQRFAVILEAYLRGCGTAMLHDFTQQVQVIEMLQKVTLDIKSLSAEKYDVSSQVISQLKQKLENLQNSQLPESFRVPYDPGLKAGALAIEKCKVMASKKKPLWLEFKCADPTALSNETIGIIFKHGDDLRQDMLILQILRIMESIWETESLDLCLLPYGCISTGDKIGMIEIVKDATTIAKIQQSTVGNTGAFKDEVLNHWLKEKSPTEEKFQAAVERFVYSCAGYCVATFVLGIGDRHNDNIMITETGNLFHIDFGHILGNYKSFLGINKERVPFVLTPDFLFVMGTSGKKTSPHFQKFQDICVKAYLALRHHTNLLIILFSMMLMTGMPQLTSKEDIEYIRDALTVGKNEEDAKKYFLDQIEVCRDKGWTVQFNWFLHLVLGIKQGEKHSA
(Scintillation proximity formats need no separation of bound from free tracer.)

The target of test [3] is PI3Kδ (p110δ/p85α) Recombinant Human Protein (Homo sapiens (Human), UniProt O00329). Kind of test: PI3Kδ Scintillation Proximity Assay. The class given is biochemical. The essentials:
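Assay conditions: 2 μM ATP (radiolabelled), 20 μM PIP2, 3.4 nM PI3Kδ, 20 mM MOPS pH 6.7 with 10 mM MgCl2, 5 mM DTT, 0.03% CHAPS, 2 h at room temperature. Signal from bead-captured 33P product; IC50 versus solvent control.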

PI3Kδ (p110δ/p85α) Recombinant Human Protein, sequence (O00329 whole entry): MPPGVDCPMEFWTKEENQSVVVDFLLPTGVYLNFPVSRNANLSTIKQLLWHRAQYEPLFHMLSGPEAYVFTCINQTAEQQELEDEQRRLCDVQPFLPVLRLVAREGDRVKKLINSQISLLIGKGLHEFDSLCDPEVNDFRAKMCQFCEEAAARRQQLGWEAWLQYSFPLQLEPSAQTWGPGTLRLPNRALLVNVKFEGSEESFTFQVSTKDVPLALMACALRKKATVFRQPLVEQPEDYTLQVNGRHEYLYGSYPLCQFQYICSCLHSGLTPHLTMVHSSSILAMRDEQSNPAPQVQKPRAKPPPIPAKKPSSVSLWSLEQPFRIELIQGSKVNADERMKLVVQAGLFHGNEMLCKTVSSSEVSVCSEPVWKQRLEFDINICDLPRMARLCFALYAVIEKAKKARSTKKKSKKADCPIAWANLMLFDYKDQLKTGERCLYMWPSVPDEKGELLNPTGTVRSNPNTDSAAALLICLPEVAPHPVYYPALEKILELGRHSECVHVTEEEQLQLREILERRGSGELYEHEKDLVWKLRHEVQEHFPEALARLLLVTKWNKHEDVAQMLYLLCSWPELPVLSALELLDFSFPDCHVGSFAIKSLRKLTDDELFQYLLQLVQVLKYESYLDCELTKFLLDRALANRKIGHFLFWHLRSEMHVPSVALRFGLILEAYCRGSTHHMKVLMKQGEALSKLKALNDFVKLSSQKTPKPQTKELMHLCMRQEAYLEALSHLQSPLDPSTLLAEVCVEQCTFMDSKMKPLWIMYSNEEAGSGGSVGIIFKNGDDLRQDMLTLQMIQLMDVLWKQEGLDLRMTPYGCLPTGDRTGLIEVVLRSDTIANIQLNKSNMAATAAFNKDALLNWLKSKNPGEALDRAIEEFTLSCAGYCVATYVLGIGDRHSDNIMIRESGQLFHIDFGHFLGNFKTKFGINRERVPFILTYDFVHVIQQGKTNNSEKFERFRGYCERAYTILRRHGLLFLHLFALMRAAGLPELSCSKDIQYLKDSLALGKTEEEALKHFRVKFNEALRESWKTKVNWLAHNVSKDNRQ
PI3Kδ (p110δ/p85α) Recombinant Human Protein, sequence (P27986 whole entry partner): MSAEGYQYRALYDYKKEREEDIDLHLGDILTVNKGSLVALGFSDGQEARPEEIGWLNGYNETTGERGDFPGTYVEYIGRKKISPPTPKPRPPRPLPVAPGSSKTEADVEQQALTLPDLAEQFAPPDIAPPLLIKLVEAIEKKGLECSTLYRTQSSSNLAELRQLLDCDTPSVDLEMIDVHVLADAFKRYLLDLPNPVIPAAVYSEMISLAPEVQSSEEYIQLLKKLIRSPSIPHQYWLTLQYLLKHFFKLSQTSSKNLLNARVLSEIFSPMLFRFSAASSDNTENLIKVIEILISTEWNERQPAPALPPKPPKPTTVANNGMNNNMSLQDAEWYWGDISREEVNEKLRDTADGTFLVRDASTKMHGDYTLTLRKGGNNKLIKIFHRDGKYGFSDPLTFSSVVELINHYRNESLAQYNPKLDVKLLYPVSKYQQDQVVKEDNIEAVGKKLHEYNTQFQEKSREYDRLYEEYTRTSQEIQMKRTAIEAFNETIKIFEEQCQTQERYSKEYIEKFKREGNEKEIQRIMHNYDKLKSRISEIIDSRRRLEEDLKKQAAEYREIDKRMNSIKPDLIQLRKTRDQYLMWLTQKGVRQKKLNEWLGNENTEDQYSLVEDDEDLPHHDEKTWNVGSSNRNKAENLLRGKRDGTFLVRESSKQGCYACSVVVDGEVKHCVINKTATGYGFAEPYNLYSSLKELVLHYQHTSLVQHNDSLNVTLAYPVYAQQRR

As to `Cc1ccc(S(=O)(=O)NC23COC(C)(C2)C3)cc1-c1cnc2c(N)nc(C(F)(F)F)cn12` [Example 425, 3-(8-Amino-6-(trifluoromethyl)imidazo[1,2-a]pyrazin-3-yl)-4-methyl-N-(1-methyl-2-oxabicyclo[2.1.1]hexan-4-yl)benzenesulfonamide trifluoroacetate salt], the IC50 in test [1] (Homo sapiens) is below 100 nM; in test [2], below 100 nM; in test [3] it was 100 to 500 nM.

For the molecule `Cc1ccc(S(=O)(=O)N2CC(F)(F)C[C@H]2CO)cc1-c1cnc2c(N)ncnn12` [Example 212, (S)-(1-((3-(4-Aminoimidazo[2,1-f][1,2,4]triazin-7-yl)-4-methylphenyl)sulfonyl)-4,4-difluoropyrrolidin-2-yl)methanol], the values for the IC50 in test [1] (Homo sapiens), in test [2] and in test [3] were 500 to 1000 nM, below 100 nM and 500 to 2000 nM, respectively.

Regarding `Cc1ccc(S(=O)(=O)N2CCCC(C)(CO)C2)cc1-c1cnc2c(N)nc(C(F)(F)F)cn12` (stereo not drawn) [Example 312, (1-((3-(8-Amino-6-(trifluoromethyl)imidazo[1,2-a]pyrazin-3-yl)-4-methylphenyl)sulfonyl)-3-methylpiperidin-3-yl)methanol], the IC50 in test [1] (Homo sapiens) was 100 to 500 nM; in test [2], below 100 nM; in test [3] it was 100 to 500 nM.

In the case of `[2H]C([2H])([2H])c1ccc(S(=O)(=O)NC23CCC(O)(C2)C3)cc1-c1cnc2c(N)nc(C(F)(F)F)cn12` [Example 252, 3-(8-Amino-6-(trifluoromethyl)imidazo[1,2-a]pyrazin-3-yl)-N-(4-hydroxybicyclo[2.1.1]hexan-1-yl)-4-(methyl-d3)benzenesulfonamide], the IC50 in test [1] (Homo sapiens) was 100 to 500 nM; in test [2], below 100 nM; in test [3], 100 to 500 nM.

For the molecule `N#CC12CCC(NS(=O)(=O)c3cc(-c4cnc5c(N)nc(C(F)(F)F)cn45)ccc3Cl)(C1)C2` [Example 392, 5-(8-Amino-6-(trifluoromethyl)imidazo[1,2-a]pyrazin-3-yl)-2-chloro-N-(4-cyanobicyclo[2.1.1]hexan-1-yl)benzenesulfonamide trifluoroacetate salt], the IC50 is 100 to 500 nM in test [1] (Homo sapiens), below 100 nM in test [2] and below 100 nM in test [3].

On to `Cc1ccc(S(=O)(=O)N[C@H]2CC[C@](C)(O)CC2)cc1-c1cnc2c(N)ccnn12` [Example 518, 3-(8-Aminoimidazo[1,2-b]pyridazin-3-yl)-N-((1r,4r)-4-hydroxy-4-methylcyclohexyl)-4-methylbenzenesulfonamide], for which the IC50 lay within 100 to 500 nM in test [1] (Homo sapiens), 100 to 500 nM in test [2] and 500 to 2000 nM in test [3].

For `Cc1ccc(S(=O)(=O)N[C@H]2CC[C@@H](O)CC2)cc1-c1cnc2c(N)ncnn12` [Example 63, 3-(4-Aminoimidazo[2,1-f][1,2,4]triazin-7-yl)-N-(cis-4-hydroxycyclohexyl)-4-methylbenzenesulfonamide], the IC50 in test [1] (Homo sapiens) was 100 to 500 nM; in test [2], below 100 nM; in test [3], 100 to 500 nM.

“3-[8-Amino-6-(2-fluoro-6-methoxyphenyl)imidazo[1,2-a]pyrazin-3-yl]-N-(trans-4-hydroxycyclohexyl)-4-methylbenzenesulfonamide [Example 34]”: the figures for the IC50 in test [1], in test [2] and in test [3] were 100 to 500 nM, below 100 nM and 100 to 500 nM, respectively.

For the molecule `Cc1ccc(S(=O)(=O)N[C@H]2CC[C@H](O)CC2)cc1-c1cnc2c(N)nc(-c3cc(C(F)(F)F)nn3C)cn12` [Example 80, 3-{8-Amino-6-[1-methyl-3-(trifluoromethyl)-1H-pyrazol-5-yl]imidazo[1,2-a]pyrazin-3-yl}-N-(trans-4-hydroxycyclohexyl)-4-methylbenzenesulfonamide], the IC50 in test [1] (Homo sapiens) was 100 to 500 nM; in test [2], below 100 nM; in test [3], 100 to 500 nM.

As for `Cc1nc(N)c2ncc(-c3cc(S(=O)(=O)NCC(C)(C)O)c(Cl)cc3C)n2n1` [Example 403, 5-(4-amino-2-methylimidazo[1,2-f][1,2,4]triazin-7-yl)-2-chloro-N-(2-hydroxy-2-methylpropyl)-4-methylbenzenesulfonamide trifluoroacetate salt], the IC50 in test [1] was below 100 nM; in test [2], below 100 nM; in test [3] it was 100 to 500 nM.

Take `Cc1ccc(S(N)(=O)=O)cc1-c1cnc2c(N)ncnn12` [Example 139, 3-(4-aminoimidazo[2,1-f][1,2,4]triazin-7-yl)-4-methylbenzenesulfonamide]: the IC50 in test [1] (Homo sapiens) is above 1000 nM; in test [2] it was below 100 nM; in test [3] it was 500 to 2000 nM.

As for `Cl.[2H]C([2H])([2H])c1ccc(S(=O)(=O)NC23CCC(C#N)(C2)C3)cc1-c1cnc2c(N)ncnn12` [Example 254, 3-(4-Aminoimidazo[2,1-f][1,2,4]triazin-7-yl)-N-(4-cyanobicyclo[2.1.1]hexan-1-yl)-4-(methyl-d3)benzenesulfonamide crystalline hydrochloric acid salt], the IC50 in test [1] (Homo sapiens) is below 100 nM; in test [2], below 100 nM; in test [3], 100 to 500 nM.

Regarding `Cc1ccc(S(=O)(=O)NC23CC(C(=O)O)(C2)C3)cc1-c1cnc2c(N)nc(C(F)(F)F)cn12` [Example 290, 3-(3-(8-Amino-6-(trifluoromethyl)imidazo[1,2-a]pyrazin-3-yl)-4-methylphenylsulfonamido)bicyclo[1.1.1]pentane-1-carboxylic acid trifluoroacetate salt], the IC50 in test [1] (Homo sapiens) is above 1000 nM; in test [2], below 100 nM; in test [3] it was 500 to 2000 nM.

In the case of `Cc1ccc(S(=O)(=O)N(CCC#N)C2CCCC2)cc1-c1cnc2c(N)nc(C(F)(F)F)nn12` [Example 346, 3-(4-amino-2-(trifluoromethyl)imidazo[2,1-f][1,2,4]triazin-7-yl)-N-(2-cyanoethyl)-N-cyclopentyl-4-methylbenzenesulfonamide], the IC50 is 100 to 500 nM in test [1] (Homo sapiens), below 100 nM in test [2] and 100 to 500 nM in test [3].

`Cc1ccc(S(=O)(=O)NC23CCC(C(C)(C)O)(CC2)C3)cc1-c1cnc2c(N)ncnn12` [Example 431, 3-(4-Aminoimidazo[1,2-f][1,2,4]triazin-7-yl)-N-(4-(2-hydroxypropan-2-yl)bicyclo[2.2.1]heptan-1-yl)-4-methylbenzenesulfonamide trifluoroacetate salt]: the IC50 in test [1] (Homo sapiens) is 100 to 500 nM; in test [2], below 100 nM; in test [3], 100 to 500 nM.

As for `Cc1ccc(S(=O)(=O)N[C@H]2CC[C@H](O)CC2)cc1-c1cnc2c(N)nc(-c3cnn(C(C)(C)C#N)c3)cn12` [Example 78, 3-{8-amino-6-[1-(1-cyano-1-methylethyl)-1H-pyrazol-4-yl]imidazo[1,2-a]pyrazin-3-yl}-N-(trans-4-hydroxycyclohexyl)-4-methylbenzenesulfonamide], the IC50 in test [1] (Homo sapiens) was 500 to 1000 nM; in test [2], below 100 nM; in test [3], 100 to 500 nM.

For the molecule `Cc1ccc(S(=O)(=O)N[C@H]2C[C@H](CO)C2)cc1-c1cnc2c(N)nccn12` [Example 56, 3-(8-Aminoimidazo[1,2-a]pyrazin-3-yl)-N-[trans-3-(hydroxymethyl)cyclobutyl]-4-methylbenzenesulfonamide], the IC50 in test [1] (Homo sapiens) was above 1000 nM; in test [2] it was below 100 nM; in test [3] it was 500 to 2000 nM.

In general, IC50 refers to the concentration that gives 50% inhibition.
